Test results as given in US9243031B2, “Complex-forming compounds” (priority 2011, dated 2016).
“Also recorded” adds a separate entry of the source. Like-named read-outs stand apart in the source and are kept apart here.

Assays:
[1] = Measurement of metal selectivity by HPLC-MS (ESI), ratio of metal adduct to Ca adduct signals; format: binding
[2] = as above; format: binding; remark: listed apart in the source
Method: (§1) Therefore, the measurements of Ca—Sr ionselectivity were carried out with an AGILENT 6140 Octapol MS (mass spectrometer) equipped with an AGILENT 1200 HPLC. The ionization was carried out by using an electron-spray (ESI, MM-FS) soft ionization equipment with positive detection. During the measurements different complex-forming compounds of the formulas (P-1), P-2), (P-3) prepared with the synthesizes shown above and decorporol of the formula (XI) were added to stock solutions, then the solutions were measured with mass spectrometry.
(§2) The measuring of Ca—Sr ionselectivity was carried out with an AGILENT 6140 Octapol MS (mass spectrometer) equipped with an AGILENT 1200 HPLC. The ionization was carried out by using an electron-spray (ESI, MM-FS) soft ionization equipment with positive detection. The used field strength was 10000V, the spray temperature 220° C., Fragmentor: 70; Treshold: 500, stepsize 0.2 Da; Ionization Switch Delay: 0 ms; Polarity Switch Delay 300 ms; Gain: 1:0; Mass range: 100-1200 Da. Nitrogen gas was used. These parameters were obtained by optimization. The used HPLC column was a 30 mm long WATERS ACQUITY UPLC column with an inner diameter of 2.1 mm and filled with C18 packing of 1.8 um. The amounts of the injected samples were changed between 2-10 ul. The eluents used due to the appropriate ionization were as follows:
(§3) Eluent A: 0.395 g of NH4HCO3 dissolved in 1 l water+50 ml MeCN.
(§4) Solution A: 0.1 M Ca ion stock solution: 222.1 mg (2 mmol) of anhydrous CaCl2 are dissolved in 20 ml of distilled water.
Solution B: 0.1 M Sr ion stock solution: 533.5 mg (2 mmol) of SrCl2.6H2O are dissolved in 20 ml of distilled water.
(§5) 100 μl of A stock solution and to 100 μl of I, II, III or IV solutions 100 μl of B-G solution are added according to the Table below and the amount of the thus obtained samples are completed to 1 ml, then injected into the HPLC.
(§6) A minimal retention time of 0.75 minutes was registered in case of the tests with Decorporol. We registered the free complex-forming compound (M+H+DA), the calcium adduct (M−H^++38 Da) and the strontium complex (M−H^++86 Da) in every case. Due to the very similar chemical properties of the Ca ion and the strontium ion it is presumable that they behave similarly during ionization, therefore we have determined the selectivity compared to Ca ion by the ratio of the average mass spectrometry signals of Ca adducts to Sr adducts. In case of the measurements of the physiologically important and toxic metal ions the compound of formula (P-3) was used. The signal of the corresponding metal ion adduct was always well separated from the signal of the mother compound and from the signal of the Ca-adduct.

[3] = Quantum chemical calculation of the Ca2+ ion changing process (Gaussian09, B3LYP/LANL2DZ); conditions: ratio of calculated RH values
Method: Since there is no appropriate analytical method for the measurement of the complex-forming properties of these compounds with sufficient accuracy, we determined the complex-forming constants compared to the calcium ion complexes with high level quantum chemical calculations. The calculations were performed using Gaussian09 software on B3LYP/LANL2DZ theoretical level. In course of the calculations frequency calculations were also performed from which thermodynamic data were also determined.
The ion binding capabilities to each of ions are compared to the calcium binding capabilities, which is shown by RH (relative complex-forming tendency).
The thermodynamic data (ΔE, ΔH, ΔG) were calculated with mathematical equations from the values of E, H and G counted on quantum chemical basis: ΔE[complex-M]=E[complex-M]+E[CaCl2.6H2O]−{E[complex-Ca]+E[MCl2.6H2O]} ΔH[complex-M]=H[complex-M]+H[CaCl2.6H2O]−{H[complex-Ca]+H[MCl2.6H2O]} ΔG[complex-M]=G[complex-M]+G[CaCl2.6H2O]−{G[complex-Ca]+G[MCl2.6H2O]}
The relative complex-forming constant (RG) compared to the Ca^2+ ion can be calculated with the following equation: […]
Since the quotient formation expectedly causes a loss of entropy coefficients, the following equation was used which is more practical due to the fluctuation of the calculated entropy coefficient: […]

[4] = Measurement of metal selectivity by HPLC-MS (ESI), ratio of metal adduct to Ca adduct signals; format: binding; conditions: for binding of Sn ion (in words): HPLC-MS; for M^2+/Ca^2+ rate: M = Sn
Method: as §1, §2, §3, §4
Solution E: 0.1 M Sn ion stock solution: 379.6 mg (2 mmol) of SnCl2 are dissolved in 20 ml of distillated water.
as §5, §6

[5] = as above; format: binding; conditions: for binding of Zn ion (in words): HPLC-MS
Method: as §1, §2, §3, §4
Solution D: 0.1 M Zn ion stock solution: 272.5 mg (2 mmol) of ZnCl2 are dissolved in 20 ml of distilled water.
as §5, §6

[6] = as above; format: binding; conditions: for binding of Pb ion / palladium (in words): HPLC-MS; for M^2+/Ca^2+ rate / M^2+/Ca^2+ rate, peak of decarboxylated fragment (in brackets): M = Pd
Method: as §1, §2, §3, §4
Solution F: 0.1 M Pb ion stock solution: 217.0 mg […] of Pb(OOCCF3)2 are dissolved in 5 ml distilled water.
as §5, §6

[7] = as above; format: binding; remark: listed apart in the source
Method: as §1
The measuring of Ca—Sr ionselectivity was carried out with an AGILENT 6140 Octapol MS (mass spectrometer) equipped with an AGILENT 1200 HPLC. The ionization was carried out by using an electron-spray (ESI, MM-FS) soft ionization equipment with positive detection. The used field strength was 10000V, the spray temperature 220° C., Fragmentor: 70; Treshold: 500, stepsize 0.2 Da; Ionization Switch Delay: 0 ms; Polarity Switch Delay 300 ms; Gain: 1:0; Mass range: 100-1200 Da. […]
A minimal retention time of 0.75 minutes was registered in case of the tests with Decorporol. […] Due to the very similar chemical properties of the Ca ion and the strontium ion it is presumable that they behave similarly during ionization, therefore we have determined the selectivity compared to Ca ion by the ratio of the average mass spectrometry signals of Ca adducts to Sr adducts. […]

[8] = Decarboxylation observed during the HPLC-MS measurements; format: physicochemical
Method: The decarboxylation, which is characteristic of decorporol, was shown also during the measurements.
as §2, §6
This process is well-known and leads to slow degradation of decorporol. The mono-decarboxylated and the double-decarboxylated derivatives are the main contaminants of decorporol and their solubility is very low in water, therefore beyond a certain concentration the complexes could precipitate.

[9] = Measurement of metal selectivity by HPLC-MS (ESI), ratio of metal adduct to Ca adduct signals; format: binding; conditions: for binding of Cu ion (in words): HPLC-MS
Method: as §1, §2, §3, §4
Solution C: 0.1 M Cu ion stock solution: 500.0 mg (2 mmol) of CuSO4.5H2O are dissolved in 20 ml of distilled water.
as §5, §6

[10] = mice, compound added intravenously, calcium remained; cited from earlier work
[11] = during HPLC-MS measurements with metal ions

Molecule | Sr^2+/Ca^2+ rate [1] | MS peak of the free complex-forming compound compared with the peak of its Sr complex [2] | binding of strontium ion (in words) [2] | strontium binding affinity compared to the compound of formula (XI) [3] | binding of Sn ion (in words) [4] | M^2+/Ca^2+ rate [4] | binding of Zn ion (in words) [5] | M^2+/Ca^2+ rate ([5]; M = Zn) | binding of Pb ion / palladium (in words) [6] | M^2+/Ca^2+ rate [6] | decarboxylation [8, 11] | binding of Cu ion (in words) [9] | M^2+/Ca^2+ rate ([9]; M = Cu) | further results
2-(2-{16-[(1,2-Dicarboxy-ethylcarbamoil)-methyl]-1,4,10,13-tetraoxa-7,16-diaza-cyclooctadec-7-yl}-acetylamino)-succinic acid [(P-2)] | 1.4 | significantly lower; also recorded: considerably smaller | stronger than Ca ion | approximately 4 fold | – | – | – | – | – | – | – | – | – | –
O=C(CN1CCOCCOCCN(CC(=O)NC(C(=O)O)C(=O)O)CCOCCOCC1)NC(C(=O)O)C(=O)O [(P-1), 2-(2-{16-[(Dicarboxymethyl-carbamoyl)-methyl]-1,4,10,13-tetraoxa-7,16-diaza-cyclooctadec-7-yl}-acetiyamino)-malonic acid] | 1.25 | significantly lower; also recorded: considerably smaller | – | more than 4 fold | – | – | – | – | – | – | – | – | – | –
O=C(O)CCC(NC(=O)CN1CCOCCOCCN(CC(=O)NC(CCC(=O)O)C(=O)O)CCOCCOCC1)C(=O)O (stereo not drawn) [(P-3), 2-(2-{16-[(1,3-Dicarboxy-propylcarbamoyl)-methyl]-1,4,10,13-tetraoxa-7,16-diaza-cyclooctadec-7-yl}-acetylamino)-pentanedioic acid] | 1.5 | significantly lower; also recorded: considerably smaller | strongest; also recorded: stronger than Ca ion | – | very strongly | 100 | does not bind | ca. 0 | very strongly | 29 | does not decarboxylate | a little stronger than Ca ion; also recorded: slightly binds | 1.1 | binding of Fe ion (in words) ([7]; HPLC-MS): does not bind; M^2+/Ca^2+ rate ([7]; M = Fe): ca. 0
O=C(O)C(C(=O)O)N1CCOCCOCCN(C(C(=O)O)C(=O)O)CCOCCOCC1 [Decorporol, (7,16-bis-malonate)-1,4,10,13-tetraoxa-7,16-diazacyclooctadecane-bis-malonic acid] | 1.2 | – | – | – | significantly less | 22 | stronger than Ca | 8 | significantly less | 20 | significant decarboxylation | a bit stronger than the compound of the formula of (P-3) | 1.2 | removal of strontium from the body [10]: removed selectively; binding of Zn ion (in words) ([5]; listed as decorporol): Good binding; also recorded: stronger than Ca ions; M^2+/Ca^2+ rate, peak of decarboxylated fragment (in brackets) ([5]; M = Zn): 4; MS peak of the free complex-forming compound compared with the peak of its Sr complex ([2]; listed as decorporol): worse; also recorded: lower; M^2+/Ca^2+ rate, peak of decarboxylated fragment (in brackets) ([6]; first bracketed peak): 29; M^2+/Ca^2+ rate, peak of decarboxylated fragment (in brackets) ([6]; second bracketed peak): 40; decarboxylation ([8]; in case of Pb ion): very strong decarboxylation process; M^2+/Ca^2+ rate, peak of decarboxylated fragment (in brackets) ([9]; M = Cu): 1.5
